Biological target: T1, Glyoxylate reductase/hydroxypyruvate reductase (GRHPR) (Homo sapiens, UniProt Q9UBQ7)
T1 construct: endogenous in cells; host or cells: MCF7
Test: SILAC competitive profiling with probe 24c in MCF7 lysates: GRHPR
Assay type: binding
Settings: protein GRHPR, 1 h, then 10 µM 24c
From the text: In our efforts to determine the direct molecular targets of deoxyelephantopin we first performed a gel-based competitive in situ proteomic profiling assay[41] […] While the greater conformational flexibility of probe 24c could potentially lead to more promiscuous target engagement relatively to deoxyelephantopin, it was favoured based on the fact that an alkyne moiety appended to the rigid scaffold of deoxyelephantopin may hinder some of its interactions. MCF7 cells were pretreated with various concentrations of deoxyelephantopin for 4 h, harvested, lysed and the lysates were treated with the fluorogenic probe 24c-Cy3 (10 μM; Supplementary Fig. 10). […] Furthermore, cells were pretreated with 20 μM concentration of deoxyelephantopin or 24c and the proteomic profiles were compared (Fig. 6b, Supplementary Fig. 11). Multiple bands were detected that were equally competed by both DEP and 24c, thus again confirming that 24c can be used as an acceptable clickable analogue of deoxyelephantopin in pulldown assays. Having established the optimal labelling conditions by SDS–PAGE, we next carried out a mass spectrometry-based competitive profiling assay[42] coupled with the method of stable isotope labelling of amino acids in culture (SILAC)[43]. […]
visualization were performed as described above. Images were quantified with ImageJ and kinetics values were calculated using GraphPad Prism (V6.03). […]

T1 sequence (Q9UBQ7 whole entry): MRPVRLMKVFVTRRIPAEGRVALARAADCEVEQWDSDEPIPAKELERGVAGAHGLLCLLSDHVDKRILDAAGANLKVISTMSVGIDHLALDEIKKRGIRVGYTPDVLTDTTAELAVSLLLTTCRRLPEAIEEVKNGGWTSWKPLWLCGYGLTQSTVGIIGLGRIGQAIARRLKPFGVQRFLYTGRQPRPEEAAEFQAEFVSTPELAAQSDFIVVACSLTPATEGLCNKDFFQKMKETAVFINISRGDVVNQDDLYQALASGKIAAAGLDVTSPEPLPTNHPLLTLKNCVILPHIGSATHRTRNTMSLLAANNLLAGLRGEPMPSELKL

## C=C(C)C(=O)O[C@H]1CC2=C[C@@H](C/C(C)=C/[C@H]3OC(=O)C(=C)[C@H]13)OC2=O [deoxyelephantopin]
  SILAC ratio 20 µM Deoxyelephantopin/DMSO with 24c: 0.23
